Experimental data reported in US4148919A, “7-Amino-6,7-dihydro [5H]benzocycloheptene derivatives” (Roussel Uclaf, priority 1975, dated 1979).

Legend:
mice [1] = experiment: Potentialization of effects of monoamine oxidase inhibitor (nialamide hyperactivity, actimetry); assay type: in vivo; design: key: ++: expressed in increasing number of + signs for a determined dose in mg/kg; +++: expressed in increasing number of + signs for a determined dose in mg/kg; details: 30 minutes after nialamide 100 mg/kg i.p., actimetry for 6 hours
Protocol: The administration of a monoamine oxidase inhibitor to mice induces a hyperactive movement of the animals which is able to be potentialized by an antidepressant. Using the procedure of Carlsson et al. [Brain Research, Vol. 12 (1969), p. 456], a dose of 100 mg/kg of nialamide was intraperitoneally administered to mice 30 minutes before the intraperitoneal administration of the tested product and the values of actimetric measurements were recorded every 30 minutes for 6 hours. Potentiation of the effects of nialamide for the tested product was expressed in increasing number of + signs for a determined dose in mg/kg.

serotonine (5HT) uptake [2] = experiment: Inhibition of Serotonine uptake in vitro (impure brain synaptosomes); assay type: biochemical; details: female rat brain synaptosomes, 37° C. 5 minutes, 14C-5HT 10^-7 M
Protocol: (§1) The inhibition of serotonine (5HT) uptake was measured in impure synaptosomes prepared from the entire brain of a female rat 19 to 21 days old using the technique of Kannengiesser et al. [Biochemical Pharmacology,Vol. 22, (1973) p. 73].

serotonine (5HT) uptake [3] = experiment: Inhibition of Serotonine uptake in vivo (synaptosomes from treated rats); design: species or system rat; key: the activity was expressed in increasing number of + signs; details: 20 mg/kg intraperitoneal, female rats, brain removed after 30 minutes
Protocol: as §1
The tested products were intraperitoneally administered to groups of female rats 19 to 21 days old at doses of 5 to 20 mg/kg. After 30 minutes, the brain was removed and synaptosomes were prepared and placed in an incubator in the presence of 14 C-5HT as indicated in the previous test.

mice [4] = experiment: Potentiation of effects of L-dopa in iproniazide-pretreated mice; assay type: in vivo; details: male mice, intraperitoneal, iproniazide 75 mg/kg 18 hours before, L-dopa 100 mg/kg i.p. one hour after product; 60 min
Protocol: The administration of L-dopa to mice pretreated 18 hours previously with iproniazide produced certain number of symptoms; muscular hypertonicity, hyperactivity, agitation, crying, aggressiveness, salivation and exophthalmy. The intensity of these effects is potentiated by administration of an antidepressant one hour before the administration of L-dopa. Male mices received intraperitoneally 75 mg/kg of iproniazide 18 hours before the start of the test and the tested product was intraperitoneally administered in aqueous solution in increasing doses. One hour later, L-dopa was intraperitoneally administered at a dose of 100 mg/kg and the different symptoms were observed 15 and 30 minutes later. They were evaluated on a scale of 0 to 3 for each animal and the totals for each dose were determined. The ED50 dose which potentiates by 50% the L-dopa effects was determined to be about 20 mg/kg for the product of Example 1.

mice [5] = experiment: Acute toxicity; assay type: in vivo; details: intraperitoneal administration, determined 48 hours later
Protocol: The DL50 dose which kills 50% of mice after intraperitoneal administration of the tested compound was determined 48 hours later and the DL50 for the compound of Example 1 was about 75 mg/kg.

Substance: 7-amino-6,7-dihydro [5H] benzocycloheptene-hydrochloride [Example 1]
- Potentiation of the effects of nialamide (mice [1]; 5 mg/kg intraperitoneal): ++
- Potentiation of the effects of nialamide (mice [1]; 20 mg/kg intraperitoneal): +++
- IC50 (serotonine (5HT) uptake [2]): ~2.4 µM
- Relative power to inhibit the uptake of 14C-5HT (serotonine (5HT) uptake [3]): +
- ED50 dose which potentiates by 50% the L-dopa effects (mice [4]): about 20 mg/kg
- DL50 dose which kills 50% of mice (mice [5]): about 75 mg/kg
